Results reported in article PMC7998309, “Structural-Based Optimizations of the Marine-Originated Meridianin C as Glucose Uptake Agents by Inhibiting GSK-3β” (Marine Drugs, 2021).

Legend:
[1] = system: HepG2 cells; assay: Cell glucose uptake assay in HepG2 cells; assay type: cell-based, human; conditions: relative glucose uptake at 5 µM in HepG2 cells, 3 h, compared with original glucose concentration of the medium; na = not active at 5 µM
Procedure: (§1) The hepatocyte cell line HepG2 cells obtained from the Type Culture Collection of the Chinese Academy of Sciences (Shanghai, China) were maintained in high-glucose DMEM (Gibco) supplemented with 10% fetal bovine serum (FBS) and 1% penicillin-streptomycin in an atmosphere of 5% CO2 at 37 °C.
Into a 96-well plate, 5 × 10^3 HepG2 cells per well were seeded. After 48 h, phenol red-free DMEM (Gibco) with 1% FBS was transferred to deprive the cells overnight, and then the tested compounds dissolved in a glucose-HEPES buffer (glucose concentration was 100 µg/mL) at a concentration of 5 µM were added to the culture system. Three hours later, the culture supernatants were collected and the glucose concentrations were detected using the Glucose (GO) Assay Kit (Sigma-Aldrich Corp.). Compared with the original glucose concentration of the buffer, the relative glucose uptake was calculated.

[2] = MTT assay for cell viability (cytotoxicity); assay type: cell-based, human; conditions: human; HepG2 cells, 48 h incubation, MTT
Procedure: as §1
(§2) Into a 96-well plate, 1 × 10^3 HepG2 cells per well were seeded. After 24 h, stock solutions of test compounds in DMSO were diluted in DMEM to ≤0.1% final DMSO concentration. Cells were treated with various concentrations (2.5–25 µM) of tested compounds for 48 h, and the MTT solution (0.5 mg/mL) was added. After 4 h of incubation at 37 °C for MTT-formazan formation, the supernatant was discarded and 100 µL of DMSO was applied into each well to dissolve formazan crystals. Absorbance at 490 nm was determined spectrophotometrically by using a microplate reader (Epoch, BioTek Instruments, Inc., Winooski, VT, USA).

[3] = molecular target: T1, human GSK-3β (Homo sapiens, UniProt P49841); assay: Inhibition of recombinant GSK-3β (Z-lyte assay); assay type: biochemical; conditions: for IC50: human GSK-3β, top concentration 30 μM
T1 construct: purchased Invitrogen
Procedure: The activity of recombinant GSK-3β (Invitrogen) was measured in a Z-lyte assay of Invitrogen. In this assay, 100 nL of the compound solution in DMSO was transferred to a 384-well assay plate (the compound got threefold serial dilution, and the top concentration of the compound was 30 μM in the final reaction mixture). Then 5 μL of an enzyme (2 nM) and Ser/Thr 9 peptide (4 μM) mixture was added. After the enzyme and peptide pre-incubation with the compound for 30 min at 23 °C, 5 μL of ATP (12 μM) solution was added. The plate was incubated for 60 min at 23 °C. The reaction was stopped with 5 μL of development reagent. Fluorescence signals were detected with Envision (PerkinElmer, America) after 30 min of incubation, and the emission ratio (RFU 460 nm/RFU 535 nm) was used to analyze the data. The relative IC50 was reported using four-parameter logistic fit of IDBS Xlfit software. The IC50 values were calculated using the following equation: %Phosphorylation = 1 - (Emission Ratio × F100%) - C100%/(C0% - C100%) + [Emission Ratio × (F100% - F0%)] where
Emission ratio = Coumarin/Fluorescein ratio of sample wells
C100% = Average coumarin emission signal of the 100% phos. control
C0% = Average coumarin emission signal of the 0% phos. control
F100% = Average fluorescein emission signal of the 100% phos. control
F0% = Average fluorescein emission signal of the 0% phos. control %Inhibition = {1 - %Phos Sample/%Phos 0%Inhibition Ctl}*100

[4] = system: HepG2 cells; assay: MTT assay for cell viability (cytotoxicity); assay type: cell-based, human
Procedure: as §1, §2

T1 sequence (P49841 whole entry): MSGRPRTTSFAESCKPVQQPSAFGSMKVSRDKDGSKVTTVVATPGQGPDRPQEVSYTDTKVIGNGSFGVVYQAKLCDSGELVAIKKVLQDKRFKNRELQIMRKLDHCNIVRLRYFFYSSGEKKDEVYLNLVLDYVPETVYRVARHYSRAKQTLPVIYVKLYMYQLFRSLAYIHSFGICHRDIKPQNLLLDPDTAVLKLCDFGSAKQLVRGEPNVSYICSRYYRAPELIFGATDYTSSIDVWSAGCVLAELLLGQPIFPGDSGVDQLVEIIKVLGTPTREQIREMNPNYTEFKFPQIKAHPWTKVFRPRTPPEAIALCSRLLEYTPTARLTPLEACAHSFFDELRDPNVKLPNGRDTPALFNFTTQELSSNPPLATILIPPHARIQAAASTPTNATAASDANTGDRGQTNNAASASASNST

Row | melting point [°C] | inhibitory activity against GSK-3β at 30 µM (in words) [3] | IC50 [3] [µM] | Structure (SMILES) | Cell Glucose Uptake (%) [1] [%] | CC50 at 48 h [2] [µM] | toxicity against HepG2 cells (in words) [4]
1 | 147.4 to 148.3 | no apparent inhibitory activity | > 30 | Nc1ncc(-c2ccc(NC(=O)c3ccccc3Br)cc2)c(-c2c[nH]c3ccc(Br)cc23)n1 [A13, N-(4-(2-amino-4-(5-bromo-1H-indol-3-yl)pyrimidin-5-yl)phenyl)-2-bromobenzamide] | 27 | > 25 | 
2 | 263.3 to 264.2 |  | 5.85 | Fc1cccc(F)c1Nc1nccc(-c2c[nH]c3ccc(Br)cc23)n1 [B29, 4-(5-Bromo-1H-indol-3-yl)-N-(2,6-difluorophenyl) pyrimidin-2-amine] | 29 | 22.4 | no significant toxicity
3 | 228.5 to 229.4 |  | 24.4 | Cc1cccc(C)c1Nc1nccc(-c2c[nH]c3ccc(Br)cc23)n1 [B30, 4-(5-Bromo-1H-indol-3-yl)-N-(2,6-dimethylphenyl) pyrimidin-2-amine] | 38 | 18.1 | no significant toxicity
4 | 177.7 to 178.5 | no apparent inhibitory activity | > 30 | Nc1ncc(-c2ccc(NC(=O)c3cc(Cl)cc(Cl)c3)cc2)c(-c2c[nH]c3ccc(Br)cc23)n1 [A26, N-(4-(2-amino-4-(5-bromo-1H-indol-3-yl)pyrimidin-5-yl)phenyl)-3,5-dichlorobenzamide] | 22 | 14.3 | 
